Measurements published in patent publication US12558399B2, “Isocyclosporin A for topical treatment of ocular diseases” (DOMPE' FARMACEUTICI S.P.A., priority 2021, dated 2026).

How the values were obtained:
[1] = test system: tear secretion; experiment: Tear secretion by modified Schirmer test in scopolamine-treated mice; format: in vivo; details: mouse, day 22 and day 25, compared between treated groups
Description: In details, 15 mice (N=5 per group) were randomly assigned at baseline to 3 groups and dry eye was induced by treatment with a subcutaneous injection protocol of 0.5 mg/0.2 ml scopolamine hydrobromide, as previously described (Yeh S et al. Invest Ophthalmol Vis Sci, 2003, 44 (1): 124-9). […] In the treatment groups, ten microliters of the test formulations were instilled in each mouse three times a day in both eyes starting at Day 1 after the first scopolamine injection for 25 days. The treatments were encoded, and the group allocation was blinded to the technician administering the treatment, and to the researcher assessing the outcome of the experiment. Group identification was uncovered at the end of the analysis. Tear secretion was also measured in all animals by modified Schirmer test at day 22 and at day 25, as described in Rossi S. et al. Arch Ital Biol. 2012 March; 150 (1): 15-21.

[2] = biological target: T1, TRPV3 (Homo sapiens, UniProt Q8NET8); experiment: FLIPR assay, TRPV3 inhibition; format: cell-based
T1 sequence (Q8NET8 1-790): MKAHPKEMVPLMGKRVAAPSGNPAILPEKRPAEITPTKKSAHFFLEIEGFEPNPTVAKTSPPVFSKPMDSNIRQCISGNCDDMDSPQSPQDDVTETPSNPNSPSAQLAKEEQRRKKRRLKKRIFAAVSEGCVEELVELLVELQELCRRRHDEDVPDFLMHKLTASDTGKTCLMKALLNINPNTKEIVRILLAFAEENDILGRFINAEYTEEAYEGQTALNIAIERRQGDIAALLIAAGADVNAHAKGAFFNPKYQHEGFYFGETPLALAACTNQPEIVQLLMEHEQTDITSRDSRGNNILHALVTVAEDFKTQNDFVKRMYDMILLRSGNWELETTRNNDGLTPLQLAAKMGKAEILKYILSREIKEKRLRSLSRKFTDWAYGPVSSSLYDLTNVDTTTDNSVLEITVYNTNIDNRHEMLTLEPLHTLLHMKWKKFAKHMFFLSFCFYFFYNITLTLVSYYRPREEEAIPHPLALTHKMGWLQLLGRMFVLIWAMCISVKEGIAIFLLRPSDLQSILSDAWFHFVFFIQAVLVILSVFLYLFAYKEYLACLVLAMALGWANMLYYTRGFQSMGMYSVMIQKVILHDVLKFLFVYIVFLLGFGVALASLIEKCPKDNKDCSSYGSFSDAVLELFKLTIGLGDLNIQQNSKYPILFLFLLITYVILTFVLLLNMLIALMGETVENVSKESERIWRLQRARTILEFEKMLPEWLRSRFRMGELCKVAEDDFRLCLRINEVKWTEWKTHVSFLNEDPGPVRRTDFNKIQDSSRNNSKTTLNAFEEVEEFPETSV
From the text: The FLIPR assay is used to screen ion channel targets using membrane permeable fluorescent dyes. In particular, ion channel targets with significant Ca permeability, produce an increase in intracellular calcium that can be measured using calcium-sensitive dyes (Michelle R. Arkin et al. FLIPR™ Assays for GPCR and Ion Channel Targets. Assay Guidance Manual [Internet]. Bethesda (MD): Eli Lilly & Company and the National Center for Advancing Translational Sciences; 2004).
(§1) TRPV3 is an ionic channel that plays an important role in itching and inflammation, which are two characterizing aspects of ocular surface diseases such as VKC and AKC.
(§2) In details, human TRP cells are trypsinized, counted and seeded in black, clear-bottomed 96 well plates at a density of 50,000 cells per well and incubated overnight. Next day, media is removed from cell plates and 25 μl assay buffer is added. Red membrane potential or Calcium 5 dye solution (10 μl) is added to the wells and incubated at 37° C. for 1 hour. TRPV3, TRPML2 and TRPC4 are tested using the membrane potential dye.
(§3) Dye solution is made up in assay buffer. Compound dilutions are performed in 100% DMSO or dH2O then transferred to intermediate dilutions (5% DMSO/assay buffer or 5% dH2O/assay buffer) for a short time (<10 minutes) just before adding to the cell plate.
The plates are placed in the FLIPR and fluorescence monitored every 1.52 seconds. After 20 seconds 10 μl of the appropriate standard agonist is added and the fluorescence monitored for 5 minutes at ex/em: 488 nm/510-570 nm.
Reference agonists and antagonists have been tested against each channel to check that the value is within the acceptable range in order to validate the assays.
Percentage activation and inhibition values of the test compound and reference compounds has been evaluated.

[3] = biological target: T2, TRPML2 (Homo sapiens, UniProt Q8IZK6); experiment: FLIPR assay, TRPML2 inhibition; format: cell-based
T2 sequence (Q8IZK6 1-566): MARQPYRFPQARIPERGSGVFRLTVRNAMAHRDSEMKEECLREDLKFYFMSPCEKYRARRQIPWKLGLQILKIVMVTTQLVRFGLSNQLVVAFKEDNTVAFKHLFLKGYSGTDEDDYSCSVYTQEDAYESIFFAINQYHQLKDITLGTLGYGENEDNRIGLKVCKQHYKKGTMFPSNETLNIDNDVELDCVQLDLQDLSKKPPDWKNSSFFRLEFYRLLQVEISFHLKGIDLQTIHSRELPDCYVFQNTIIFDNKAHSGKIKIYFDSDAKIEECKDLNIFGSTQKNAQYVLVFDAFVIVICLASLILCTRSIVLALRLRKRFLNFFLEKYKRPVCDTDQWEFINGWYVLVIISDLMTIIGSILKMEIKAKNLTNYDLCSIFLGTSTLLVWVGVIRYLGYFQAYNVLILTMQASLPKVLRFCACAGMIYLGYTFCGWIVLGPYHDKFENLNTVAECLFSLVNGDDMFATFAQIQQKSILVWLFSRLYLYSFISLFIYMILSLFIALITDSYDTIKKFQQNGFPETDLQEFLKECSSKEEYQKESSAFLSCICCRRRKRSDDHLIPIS
Description: The FLIPR assay is used to screen ion channel targets using membrane permeable fluorescent dyes. […]
as §2, §3

[4] = biological target: T3, TRPC4 (Homo sapiens, UniProt Q9UBN4); experiment: FLIPR assay, TRPC4 activation; format: cell-based; details: 30 μM
T3 sequence (Q9UBN4 1-977): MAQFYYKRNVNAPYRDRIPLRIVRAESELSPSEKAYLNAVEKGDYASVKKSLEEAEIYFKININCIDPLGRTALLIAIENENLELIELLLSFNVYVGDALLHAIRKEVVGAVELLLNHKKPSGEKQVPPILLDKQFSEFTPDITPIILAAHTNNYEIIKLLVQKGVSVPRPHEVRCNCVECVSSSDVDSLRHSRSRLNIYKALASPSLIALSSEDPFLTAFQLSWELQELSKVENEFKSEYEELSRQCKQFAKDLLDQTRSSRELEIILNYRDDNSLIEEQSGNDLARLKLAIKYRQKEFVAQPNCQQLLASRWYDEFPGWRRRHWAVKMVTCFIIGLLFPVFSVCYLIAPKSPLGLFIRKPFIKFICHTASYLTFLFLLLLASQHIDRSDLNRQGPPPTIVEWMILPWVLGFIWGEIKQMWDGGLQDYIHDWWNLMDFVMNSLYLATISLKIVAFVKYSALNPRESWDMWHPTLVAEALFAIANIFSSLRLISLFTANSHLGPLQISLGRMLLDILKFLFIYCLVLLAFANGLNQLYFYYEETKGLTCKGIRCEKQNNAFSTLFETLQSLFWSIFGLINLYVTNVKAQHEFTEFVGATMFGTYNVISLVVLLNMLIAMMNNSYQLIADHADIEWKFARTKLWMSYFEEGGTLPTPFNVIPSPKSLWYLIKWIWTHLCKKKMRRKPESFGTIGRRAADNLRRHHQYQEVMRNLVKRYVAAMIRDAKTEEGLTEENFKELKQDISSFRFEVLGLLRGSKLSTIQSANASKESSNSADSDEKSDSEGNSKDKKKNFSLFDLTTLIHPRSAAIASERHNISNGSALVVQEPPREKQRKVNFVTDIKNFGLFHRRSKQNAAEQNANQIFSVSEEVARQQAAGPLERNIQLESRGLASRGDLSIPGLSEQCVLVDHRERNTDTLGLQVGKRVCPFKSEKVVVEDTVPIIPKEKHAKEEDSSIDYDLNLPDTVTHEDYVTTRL
Description: The FLIPR assay is used to screen ion channel targets using membrane permeable fluorescent dyes.
as §1, §2, §3
After 20 seconds IsoCsA, CsA or standard agonist are added to the wells and the fluorescence monitored for 5 minutes at ex./em.

[5] = mouse, in vivo
[6] = test system: eye of healthy rabbits; details: rabbit, in vivo
[7] = 56 μM, reference agonist, considered equal to 0%
[8] = 2 μM, agonist, considered equal to 0%

isocyclosporin A
tear secretion [1]: significantly higher levels
TRPV3 Inhibition % Mean ([2]; 30 μM): 60.1%
TRPV3 Inhibition % n = 1 ([2]; 30 μM): 63.7%
TRPV3 Inhibition % n = 2 ([2]; 30 μM): 56.5%
ability to antagonize TRPV3 relative to cyclosporin A ([2]; 30 μM): more than 4 fold
TRPML2 Inhibition % Mean ([3]; 30 μM): 71.2%
TRPML2 Inhibition % n = 1 ([3]; 30 μM): 63.9%
TRPML2 Inhibition % n = 2 ([3]; 30 μM): 78.5%
ability to antagonize TRPML2 in comparison with cyclosporin A ([3]; 30 μM): more than double
effect on activation of TRPC4 [4]: does not have any effect on activation of this channel
mean level in Conjunctiva [5]: 20 ± 7 ng/mg
mean level in Cornea [5]: 15 ± 5 ng/mg
mean level in Intraocular tissues (combined) [5]: 2 ± 1 ng/mg
variability of tissue levels within different animals with the same treatment [5]: significantly lower variability
frequency of the winking [6]: 5±1

[Gd+3] [Gd3, Gadolinium]
TRPML2 Inhibition % Mean ([3]; 4 mM, antagonist): 89.6%
TRPML2 Inhibition % n = 1 ([3]; 4 mM, antagonist): 88.2%
TRPML2 Inhibition % n = 2 ([3]; 4 mM, antagonist): 90.9%

N.N.N.N.N.N.N.N.N.N.N.N.N.N.[Cl-].[Cl-].[Cl-].[Cl-].[Cl-].[Cl-].[O-2].[O-2].[Ru+3].[Ru+3].[Ru+4] [RR, ruthenium red]
TRPV3 Inhibition % Mean ([2]; 100 μM, reference antagonist): 91.7%
TRPV3 Inhibition % n = 1 ([2]; 100 μM, reference antagonist): 90.2%
TRPV3 Inhibition % n = 2 ([2]; 100 μM, reference antagonist): 93.2%

NCCOB(c1ccccc1)c1ccccc1 [2-APB, 2-aminoetoxy diphenyl borate]
TRPV3 Inhibition % Mean [2, 7]: 0%
TRPV3 Inhibition % n = 1 [2, 7]: 0%
TRPV3 Inhibition % n = 2 [2, 7]: 0%

[Ca+2].[Cl-].[Cl-] [CaCl2]
TRPML2 Inhibition % Mean [3, 8]: 0%
TRPML2 Inhibition % n = 1 [3, 8]: 0%
TRPML2 Inhibition % n = 2 [3, 8]: 0%
